This is an account of results in patent publication US10696708B2, “Substituted nucleosides, nucleotides and analogs thereof” (Janssen BioPharma, Inc., priority 2013, dated 2020).

Experiment [1] deals with RSV polymerase (Human respiratory syncytial virus A, UniProt P28887). Kind of experiment: Standard RSV polymerase assay. The format is biochemical. How it is done:
Standard RSV polymerase assays were conducted in the presence of 3 μL extract of RSV-infected cells in a reaction buffer containing 50 mM tris-acetate pH 8, 120 mM K-acetate, 4.5 mM MgCl2, 5% glycerol, 2 mM EDTA, 50 ug/mL BSA, and 3 mM DTT. Varying concentration of test compounds were used to initiate RNA synthesis for 120 mins at 30° C., and radioactive 33P GTP (15 uCi) was used as tracer. The reaction was stopped by adding 50 mM EDTA, and RNA samples were purified through G-50 size exclusion spin columns and phenol-chloroform extraction. The radio-labeled RNA products were resolved by electrophoresis on a 6% polyacrylamide TBE gel, and visualized and quantitated after being exposed on a phosphorlmager screen. Polymerase inhibition experiments (IC50) were conducted the same way in the presence of increasing concentration of test compounds.

Experiment [2] concerns human metapneumovirus. Kind of experiment: Human Metapneumovirus (hMPV) TCID50 assay. The format is cell-based.
Experiment [3] deals with human PIV type 3. Kind of experiment: Parainfluenza Virus-3 (PIV-3) plaque assay. The format is cell-based.
For experiment [4], the system named is RSV subgenomic replicon 395 HeLa. Put plainly: RSV subgenomic replicon assay (Renilla luciferase). The format is cell-based. The following applies: human respiratory syncytial virus, 168 h.
The mark [5] stands for this setting: 168 h, LLC-MK2 cells, 7 days infection, viral load by TCID50 assay, Table C1, read-out: EC50 against human metapneumovirus.
The mark [6] stands for this setting: MA104, MA-104 cells, 72 h infection, viral load by plaque assay, Table B1, read-out: EC50 against PIV-3.
Setting [7] is: RSV replicon 395 HeLa cells, 7 days incubation, compounds listed in Table A2 and other tested compounds, read-out: EC50.
Where [8] appears, read: RSV replicon 395 HeLa cells, 7 days incubation, compounds listed in Table A1, read-out: EC50.

SMILES strings stand for the structures. Where two headings read alike, the source gives them in different places.

Sequence of RSV polymerase (P28887 whole entry, looked up): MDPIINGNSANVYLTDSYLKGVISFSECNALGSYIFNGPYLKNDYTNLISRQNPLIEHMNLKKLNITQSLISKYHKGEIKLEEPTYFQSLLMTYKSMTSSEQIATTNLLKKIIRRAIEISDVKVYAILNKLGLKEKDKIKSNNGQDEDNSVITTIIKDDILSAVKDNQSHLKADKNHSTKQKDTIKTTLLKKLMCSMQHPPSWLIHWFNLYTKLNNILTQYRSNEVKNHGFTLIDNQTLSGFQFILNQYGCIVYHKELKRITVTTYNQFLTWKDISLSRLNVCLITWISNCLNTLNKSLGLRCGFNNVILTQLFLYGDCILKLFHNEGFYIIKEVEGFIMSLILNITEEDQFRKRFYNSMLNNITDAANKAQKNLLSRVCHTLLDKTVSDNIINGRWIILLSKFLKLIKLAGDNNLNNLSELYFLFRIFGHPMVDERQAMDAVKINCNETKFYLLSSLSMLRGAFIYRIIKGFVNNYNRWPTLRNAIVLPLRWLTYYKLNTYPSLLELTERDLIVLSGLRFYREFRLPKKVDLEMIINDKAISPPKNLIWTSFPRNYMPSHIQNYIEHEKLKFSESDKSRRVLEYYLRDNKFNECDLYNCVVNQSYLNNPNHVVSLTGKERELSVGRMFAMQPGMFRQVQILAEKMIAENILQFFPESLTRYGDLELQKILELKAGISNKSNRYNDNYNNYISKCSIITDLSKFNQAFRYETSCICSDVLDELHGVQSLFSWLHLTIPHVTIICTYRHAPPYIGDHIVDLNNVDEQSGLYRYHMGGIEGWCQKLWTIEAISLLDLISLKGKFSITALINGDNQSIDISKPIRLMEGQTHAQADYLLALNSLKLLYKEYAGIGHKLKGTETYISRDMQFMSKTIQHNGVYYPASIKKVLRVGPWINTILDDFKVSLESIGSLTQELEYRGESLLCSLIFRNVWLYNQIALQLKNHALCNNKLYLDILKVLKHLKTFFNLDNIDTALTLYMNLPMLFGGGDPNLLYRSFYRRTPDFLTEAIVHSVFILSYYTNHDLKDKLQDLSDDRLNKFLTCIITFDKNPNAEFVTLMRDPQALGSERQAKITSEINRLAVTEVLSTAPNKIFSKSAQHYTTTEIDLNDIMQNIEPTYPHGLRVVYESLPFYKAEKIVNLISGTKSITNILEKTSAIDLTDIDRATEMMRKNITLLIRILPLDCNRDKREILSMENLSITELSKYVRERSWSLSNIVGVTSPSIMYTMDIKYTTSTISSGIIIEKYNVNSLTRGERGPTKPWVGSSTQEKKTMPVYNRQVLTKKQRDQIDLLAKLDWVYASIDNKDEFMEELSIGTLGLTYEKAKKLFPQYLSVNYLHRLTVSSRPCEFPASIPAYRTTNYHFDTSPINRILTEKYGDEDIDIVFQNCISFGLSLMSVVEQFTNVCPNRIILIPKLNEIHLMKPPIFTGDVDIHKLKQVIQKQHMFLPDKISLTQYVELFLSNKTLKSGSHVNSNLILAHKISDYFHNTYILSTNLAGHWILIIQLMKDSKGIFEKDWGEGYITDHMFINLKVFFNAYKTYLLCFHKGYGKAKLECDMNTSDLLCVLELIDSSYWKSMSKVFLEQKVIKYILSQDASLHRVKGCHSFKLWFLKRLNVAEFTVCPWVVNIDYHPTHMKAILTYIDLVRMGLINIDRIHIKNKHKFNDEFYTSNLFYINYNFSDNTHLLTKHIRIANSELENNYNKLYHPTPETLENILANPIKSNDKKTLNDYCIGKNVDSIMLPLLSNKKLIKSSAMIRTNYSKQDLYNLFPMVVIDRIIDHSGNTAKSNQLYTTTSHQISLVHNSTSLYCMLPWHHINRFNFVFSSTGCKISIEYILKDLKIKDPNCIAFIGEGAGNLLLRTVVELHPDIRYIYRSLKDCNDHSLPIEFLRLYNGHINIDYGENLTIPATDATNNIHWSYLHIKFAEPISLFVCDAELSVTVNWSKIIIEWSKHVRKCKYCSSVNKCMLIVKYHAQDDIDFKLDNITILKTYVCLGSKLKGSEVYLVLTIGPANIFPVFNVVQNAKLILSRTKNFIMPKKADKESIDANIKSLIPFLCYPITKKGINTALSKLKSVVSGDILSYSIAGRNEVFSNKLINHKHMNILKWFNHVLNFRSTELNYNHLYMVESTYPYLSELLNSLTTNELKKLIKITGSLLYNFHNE

In the case of `[N-]=[N+]=NC[C@]1(COP(=O)(O)OP(=O)(O)OP(=O)(O)O)O[C@@H](n2cnc3c(N)ncnc32)[C@H](F)[C@@H]1O` [Compound 11A], the IC50 in experiment [1] is less than 1 µM.
Take `CC(C)OC(=O)[C@H](C)NP(=O)(OC[C@@]1(CN=[N+]=[N-])O[C@@H](n2ccc(=O)[nH]c2=O)[C@H](F)[C@@H]1O)Oc1ccccc1` (stereo partly drawn) [Compound 18A]: the EC50 in experiment [2] (LLC-MK2, 168 h, read-out: EC50 against human metapneumovirus) is less than 20 µM; in experiment [3] (MA104, 72 h, read-out: EC50 against PIV-3), less than 20 µM; in experiment [4] (HeLa) it was 1 to 50 µM.
Consider `NC[C@]1(COP(=O)(O)OP(=O)(O)OP(=O)(O)O)O[C@@H](n2ccc(N)nc2=O)[C@H](F)[C@@H]1O` [Compound 6A], for which the concentration for half-maximal inhibition (IC50) in experiment [1] is 1 to 50 µM.
Turning to `CC(C)(C)C(=O)SCCOP(=O)(OCCSC(=O)C(C)(C)C)OC[C@@]1(CN=[N+]=[N-])O[C@@H](n2ccc(=O)[nH]c2=O)[C@H](F)[C@@H]1O` [Compound 19A], the EC50 in experiment [2] (setting [5]) is less than 20 µM; in experiment [3] (setting [6]), less than 20 µM; in experiment [4] (setting [7]) it was 1 to 50 µM.
In turn, `CC(C)OC(=O)CCc1ccccc1OP(=O)(N[C@@H](C)C(=O)OC(C)C)OC[C@@]1(CN=[N+]=[N-])O[C@@H](n2ccc(=O)[nH]c2=O)[C@H](F)[C@@H]1O` (stereo partly drawn) [Compound 23A] returned a concentration giving a half-maximal response (EC50) in experiment [4] (HeLa) of 1 to 50 µM.
Take `[N-]=[N+]=NC[C@]1(COP(=O)(O)OP(=O)(O)OP(=O)(O)O)O[C@@H](n2ccc(=O)[nH]c2=O)[C@H](F)[C@@H]1O` [Compound 3A]: the concentration for half-maximal inhibition (IC50) in experiment [1] was less than 1 µM.
Regarding `CC(C)OC(=O)OCOP(=O)(OCOC(=O)OC(C)C)OC[C@@]1(CN=[N+]=[N-])O[C@@H](n2ccc(=O)[nH]c2=O)[C@H](F)[C@@H]1O` [Compound 17A], the EC50 in experiment [2] (setting [5]) was less than 20 µM; in experiment [3] (setting [6]), less than 20 µM; in experiment [4] (setting [7]) it was 1 to 50 µM.
For the compound `CCCCC(=O)OC[C@@]1(CN=[N+]=[N-])O[C@@H](n2ccc(N)nc2=O)[C@H](F)[C@@H]1OC(=O)CCCC` [Compound 16A], the results for the EC50 in experiment [2] (setting [5]), in experiment [3] (setting [6]) and in experiment [4] (setting [8]) were less than 20 µM, less than 20 µM and less than 1 µM, respectively.
As for `[N-]=[N+]=NC[C@]1(CO)O[C@@H](n2cnc3c(=O)[nH]c(N)nc32)[C@H](F)[C@@H]1O` [Compound 7A], the EC50 in experiment [2] (setting [5]) was less than 20 µM; in experiment [4] (setting [7]), 1 to 50 µM.
In the case of `CC(C)(CO)C(=O)SCCOP(=O)(OCCSC(=O)C(C)(C)CO)OC[C@@]1(CN=[N+]=[N-])O[C@@H](n2ccc(=O)[nH]c2=O)[C@H](F)[C@@H]1O` [Compound 21A], in experiment [4] (HeLa), the EC50 was 1 to 50 µM.
In the case of `CC(C)OC(=O)[C@H](C)NP(=O)(N[C@@H](C)C(=O)OC(C)C)OC[C@@]1(CN=[N+]=[N-])O[C@@H](n2ccc(=O)[nH]c2=O)[C@H](F)[C@@H]1O` [Compound 20A], in experiment [4] (setting [7]), the EC50 lay in the range of 1 to 50 µM.
`NC[C@]1(COP(=O)(O)OP(=O)(O)OP(=O)(O)O)O[C@@H](n2cnc3c(N)ncnc32)[C@H](F)[C@@H]1O` [Compound 12A] displayed an IC50 in experiment [1] of less than 1 µM.
`CCC(=O)OC[C@@]1(CN=[N+]=[N-])O[C@@H](n2ccc(N)nc2=O)[C@H](F)[C@@H]1OC(=O)CC` [Compound 15A]: the EC50 in experiment [2] (setting [5]) is less than 20 µM; in experiment [3] (setting [6]) it was less than 20 µM; in experiment [4] (setting [8]) it was less than 1 µM.
On to `CC(C)(C)C(=O)OCOP(=O)(OCOC(=O)C(C)(C)C)OC[C@@]1(CN=[N+]=[N-])O[C@@H](n2ccc(=O)[nH]c2=O)[C@H](F)[C@@H]1O` [Compound 28A], for which the EC50 was less than 20 µM in experiment [2] (setting [5]), less than 20 µM in experiment [3] (setting [6]) and 1 to 50 µM in experiment [4] (setting [7]).
Consider `CC(C)C(=O)OC[C@@]1(CN=[N+]=[N-])O[C@@H](n2ccc(N)nc2=O)[C@H](F)[C@@H]1OC(=O)C(C)C` [Compound 14A], for which the EC50 in experiment [2] (setting [5]) is less than 20 µM; in experiment [3] (setting [6]), less than 20 µM; in experiment [4] (setting [8]) it was less than 1 µM.
As for `[N-]=[N+]=NC[C@]1(COP(=O)(O)OP(=O)(O)OP(=O)(O)O)O[C@@H](n2ccc(N)nc2=O)[C@H](F)[C@@H]1O` [Compound 4A], in experiment [1], the IC50 was less than 1 µM.
Regarding `CC(C)OC(=O)C(C)NP(=O)(OCCSC(=O)C(C)(C)CO)OC[C@@]1(CN=[N+]=[N-])O[C@@H](n2ccc(=O)[nH]c2=O)[C@H](F)[C@@H]1O` (stereo partly drawn) [Compound 22A], in experiment [4] (setting [7]), the EC50 was in the range of 1 to 50 µM.
Consider `[N-]=[N+]=NC[C@]1(CO)O[C@@H](n2ccc(N)nc2=O)[C@H](F)[C@@H]1O` [Compound 2A], for which the EC50 was less than 20 µM in experiment [2] (setting [5]), less than 20 µM in experiment [3] (setting [6]) and less than 1 µM in experiment [4] (setting [8]).
For `NC[C@]1(COP(=O)(O)OP(=O)(O)OP(=O)(O)O)O[C@@H](n2ccc(=O)[nH]c2=O)[C@H](F)[C@@H]1O` [Compound 5A], the IC50 in experiment [1] fell in the range of 1 to 50 µM.
